The text below walks through data of PubChem BioAssay AID330 (DTP/NCI, 2004).

Several values for one entry are separate records, joined by “and”; a condition that tells them apart may be missing. Equal values may be shown once. Inconclusive results and toxic doses are left out.

In the test the test system is P388 leukemia ip, CD2F1 mice, survival T/C. The test is described as follows: NCI In Vivo Anticancer Drug Screen. Data for tumor model P388 Leukemia (intraperitoneal) in CD2F1 (CDF1) mice. Particulars: endpoint: median survival time, higher = longer survival. An outline of the steps:
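Mice carrying the transplanted tumor received test compound or vehicle. Survival was recorded in each group, and the value is the treated-group measurement divided by that of the vehicle-treated control group.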

The mark [1] stands for this setting: dose: 60.0 mg/kg/injection, schedule: Q01DX005 (ip), vehicle: saline with Tween-80.
Setting [2] is: dose: 120.0 mg/kg/injection, schedule: Q01DX005 (ip), vehicle: saline with Tween-80.
Where [3] appears, read: dose: 240.0 mg/kg/injection, schedule: Q01DX005 (ip), vehicle: saline with Tween-80.
Where [4] appears, read: dose: 100.0 mg/kg/injection, schedule: Q01DX009 (ip), vehicle: saline with Tween-80.
Where [5] appears, read: dose: 200.0 mg/kg/injection, schedule: Q01DX009 (ip), vehicle: saline with Tween-80.
[6] abbreviates: dose: 50.0 mg/kg/injection, schedule: Q01DX005 (ip), vehicle: saline with Tween-80.
Setting [7] is: dose: 100.0 mg/kg/injection, schedule: Q01DX005 (ip), vehicle: saline with Tween-80.
Where [8] appears, read: dose: 200.0 mg/kg/injection, schedule: Q01DX005 (ip), vehicle: saline with Tween-80.
Setting [9] is: dose: 50.0 mg/kg/injection, schedule: Q01DX009 (ip), vehicle: saline.
The mark [10] stands for this setting: dose: 100.0 mg/kg/injection, schedule: Q01DX009 (ip), vehicle: saline.
[11] abbreviates: dose: 50.0 mg/kg/injection, schedule: Q01DX005 (ip), vehicle: Klucel (hydroxypropylcellulose) (HPC).
The mark [12] stands for this setting: dose: 100.0 mg/kg/injection, schedule: Q01DX005 (ip), vehicle: Klucel (hydroxypropylcellulose) (HPC).
The mark [13] stands for this setting: dose: 200.0 mg/kg/injection, schedule: Q01DX009 (ip), vehicle: saline.

As to `COc1cc(C(c2cc3c(cc2O)OCO3)N2CCN(C(c3cc(OC)c(OC)c(OC)c3)c3cc4c(cc3O)OCO4)CC2)cc(OC)c1OC` (stereo not given), the T/C reads like this: under setting [1], 87 % of control; under setting [2], 90 % of control; under setting [3], 87 % of control.
Turning to `CCCc1c(C(=O)OCC)c(-c2ccccc2)c(CCC)c2c1-c1cccc3cccc-2c13`, the T/C is, setting by setting: (dose: 50.0 mg/kg/injection, schedule: Q01DX009 (ip), vehicle: saline with Tween-80) 99 % of control; under setting [4], 95 % of control; under setting [5], 92 % of control.
Regarding `CC(C)CC(NC(=O)C(Cc1ccccc1)NC(=O)OCCc1ccccn1)C(=O)OC(C)(C)C` (stereo not given), the T/C reads like this: (dose: 60.0 mg/kg/injection, schedule: Q01DX005 (ip), vehicle: saline) 101 % of control; (dose: 120.0 mg/kg/injection, schedule: Q01DX005 (ip), vehicle: saline) 95 % of control; (dose: 240.0 mg/kg/injection, schedule: Q01DX005 (ip), vehicle: saline) 87 % of control.
With `CN1CCC(C#N)(c2ccccn2)CC1`, the T/C is 100 % of control (dose: 2.5 mg/kg/injection, schedule: Q01DX009 (ip), vehicle: saline); 109 % of control (dose: 5.0 mg/kg/injection, schedule: Q01DX009 (ip), vehicle: saline); 100 % of control (dose: 10.0 mg/kg/injection, schedule: Q01DX009 (ip), vehicle: saline).
As for `NCCc1ccc(OCc2ccccc2)c(OCc2ccccc2)c1`, the T/C is, setting by setting: (dose: 6.25 mg/kg/injection, schedule: Q01DX009 (ip), vehicle: saline) 101 % of control and 107 % of control; (dose: 12.5 mg/kg/injection, schedule: Q01DX009 (ip), vehicle: saline) 108 % of control and 118 % of control; (dose: 25.0 mg/kg/injection, schedule: Q01DX009 (ip), vehicle: saline) 101 % of control and 109 % of control.
In the case of `[Br][Rh][Br].[NH-]c1nc2c(ccc3ccccc32)s1.[NH-]c1nc2c(ccc3ccccc32)s1.[NH-]c1nc2c(ccc3ccccc32)s1.[NH-]c1nc2c(ccc3ccccc32)s1`, the T/C reads like this: (dose: 100.0 mg/kg/injection, schedule: Q04DX003 (ip), vehicle: saline) 109 % of control; (dose: 200.0 mg/kg/injection, schedule: Q04DX003 (ip), vehicle: saline) 103 % of control; (dose: 400.0 mg/kg/injection, schedule: Q04DX003 (ip), vehicle: saline) 98 % of control.
`Cc1nc2ccccc2c(=O)n1/N=C/c1ccccc1Cl`: the T/C is, setting by setting: under setting [6], 100 % of control; under setting [7], 99 % of control; under setting [8], 100 % of control.
Consider `NCc1ccccc1`, for which the T/C is, setting by setting: under setting [9], 103 % of control and 95 % of control; under setting [10], 101 % of control and 109 % of control.
For the compound `Fc1c(F)c(F)c(SN=S=Nc2ccccc2)c(F)c1F`, the T/C is, setting by setting: under setting [11], 106 % of control; under setting [12], 108 % of control.
Take `O=C(O)c1c(-c2ccccc2)nn(-c2ccccc2)c1-c1ccccc1`: the T/C was 108 % of control (dose: 50.0 mg/kg/injection, schedule: Q04DX003 (ip), vehicle: suspension in saline); 106 % of control (dose: 100.0 mg/kg/injection, schedule: Q04DX003 (ip), vehicle: suspension in saline); 102 % of control (dose: 200.0 mg/kg/injection, schedule: Q04DX003 (ip), vehicle: suspension in saline).
Turning to `O=C(Cc1ccccc1)c1ccccc1`, the T/C by setting is: (dose: 100.0 mg/kg/injection, schedule: Q04DX003 (ip), vehicle: saline with Tween-80) 98 % of control; (dose: 200.0 mg/kg/injection, schedule: Q04DX003 (ip), vehicle: saline with Tween-80) 100 % of control; (dose: 400.0 mg/kg/injection, schedule: Q04DX003 (ip), vehicle: saline with Tween-80) 100 % of control.
For the compound `CC1=C2CC(=O)OC(c3ccoc3)C2(C)CCC1C1(CC(=O)O)C2COC(=O)CC2OC1(C)C` (stereo not given), the T/C by setting is: (dose: 0.75 mg/kg/injection, schedule: Q01DX009 (ip), vehicle: saline + alcohol) 99 % of control; (dose: 1.5 mg/kg/injection, schedule: Q01DX009 (ip), vehicle: saline + alcohol) 97 % of control; (dose: 3.0 mg/kg/injection, schedule: Q01DX009 (ip), vehicle: saline + alcohol) 106 % of control; (dose: 6.0 mg/kg/injection, schedule: Q01DX009 (ip), vehicle: saline + alcohol) 101 % of control.
On to `Cc1cccc(/C=N/Nc2cc(C)c3ccccc3n2)n1`, for which the T/C runs as follows: (dose: 12.5 mg/kg/injection, schedule: Q01DX005 (ip), vehicle: saline with Tween-80) 100 % of control; (dose: 25.0 mg/kg/injection, schedule: Q01DX005 (ip), vehicle: saline with Tween-80) 93 % of control; under setting [6], 101 % of control and 104 % of control.
On to `CCCCCCCCCCCCCCCCSC1=CC(=O)C(Cl)=C(Cl)C1=O`, for which the T/C was 96 % of control (dose: 10.0 mg/kg/injection, schedule: Q01DX009 (ip), vehicle: Klucel (hydroxypropylcellulose) (HPC)); 96 % of control (dose: 20.0 mg/kg/injection, schedule: Q01DX009 (ip), vehicle: Klucel (hydroxypropylcellulose) (HPC)); 95 % of control (dose: 40.0 mg/kg/injection, schedule: Q01DX009 (ip), vehicle: Klucel (hydroxypropylcellulose) (HPC)).
Regarding `O=C(NC(Cc1ccc(Br)cc1)C(=O)O)c1cccc(Br)c1` (stereo not given), the T/C is 91 % of control under setting [11]; 102 % of control under setting [12]; 104 % of control (dose: 200.0 mg/kg/injection, schedule: Q01DX005 (ip), vehicle: Klucel (hydroxypropylcellulose) (HPC)).
As to `O=C1c2cccc3cc([N+](=O)[O-])cc(c23)C(=O)N1CCN1CCCC1`, the T/C is 118 % of control (dose: 1.56 mg/kg/injection, schedule: Q01DX009 (ip), vehicle: saline with Tween-80) and 150 % of control (dose: 12.5 mg/kg/injection, schedule: Q01DX009 (ip), vehicle: saline with Tween-80).
For `CC1=NN(c2ccc(S(=O)(=O)O)cc2)C(=O)C1N=Nc1ccc(-c2ccc(N=Nc3ccc(OS(=O)(=O)c4ccc(C)cc4)cc3)c(S(=O)(=O)O)c2)cc1` (stereo not given), the T/C by setting is: under setting [9], 100 % of control; under setting [10], 100 % of control; under setting [13], 97 % of control.
With `COC1=C(c2c[nH]c3ccc(CC=C(C)C)cc23)C(=O)C(OC)=C(c2c[nH]c3ccc(CC=C(C)C)cc23)C1=O`, the T/C by setting is: under setting [6], 89 % of control; under setting [7], 89 % of control; under setting [8], 94 % of control.
Take `COC(=O)/C=C1\SC(OC)(N(C)c2ccccc2)N(C)C1=O` (stereo not given): the T/C is 90 % of control under setting [1], 98 % of control under setting [2] and 91 % of control under setting [3].
With `CN1C2=CC3(OC2C(C)(C)c2ccccc21)N(C)c1ccccc1C3(C)C` (stereo not given), the T/C was 93 % of control (dose: 60.0 mg/kg/injection, schedule: Q01DX005 (ip), vehicle: Klucel (hydroxypropylcellulose) (HPC)); 92 % of control (dose: 120.0 mg/kg/injection, schedule: Q01DX005 (ip), vehicle: Klucel (hydroxypropylcellulose) (HPC)); 93 % of control (dose: 240.0 mg/kg/injection, schedule: Q01DX005 (ip), vehicle: Klucel (hydroxypropylcellulose) (HPC)).
As to `Cc1ccc(S(=O)(=O)OCC2(COS(=O)(=O)c3ccc(C)cc3)COC2)cc1`, the T/C (dose: 50.0 mg/kg/injection, schedule: Q01DX001 (ip), vehicle: Klucel (hydroxypropylcellulose) (HPC)) was 107 % of control; the T/C (dose: 100.0 mg/kg/injection, schedule: Q01DX001 (ip), vehicle: Klucel (hydroxypropylcellulose) (HPC)) is 103 % of control; the T/C (dose: 200.0 mg/kg/injection, schedule: Q01DX001 (ip), vehicle: Klucel (hydroxypropylcellulose) (HPC)) was 100 % of control.
In the case of `CCC(O)(CC(=O)O)c1ccccc1` (stereo not given), the T/C runs as follows: under setting [4], 104 % of control; under setting [5], 95 % of control.
Turning to `O=C1OC(C(O)CO)C(O)=C1OC[N+]1(CCCl)CCN(CCCl)CC1` (stereo not given), the T/C under setting [9] was 100 % of control and 110 % of control; the T/C under setting [10] was 108 % of control and 116 % of control; the T/C under setting [13] is 123 % of control; the T/C (dose: 400.0 mg/kg/injection, schedule: Q01DX009 (ip), vehicle: saline) was 157 % of control.
`COC1=CC2CC(C#N)C2(OC)C=C1` (stereo not given): the T/C runs as follows: under setting [1], 97 % of control; under setting [2], 99 % of control; under setting [3], 98 % of control.
